“And” between values parts separate entries of the source, which are not always exact repeats. Identical values can stand only once.
Tests used:
[1] = molar heat capacity at saturation pressure
[2] = Molar enthalpy of transition or fusion; conditions: Crystal; Adiabatic calorimetry

c1ccc(-c2cccc3ccccc23)cc1 [1-phenylnaphthalene]
[1]
Conditions	molar heat capacity
60 K, Crystal, Vacuum adiabatic calorimetry	63.39 J/K/mol
61.92 K, Crystal, Vacuum adiabatic calorimetry	65.08 J/K/mol
63.69 K, Crystal, Vacuum adiabatic calorimetry	66.18 J/K/mol
66.86 K, Crystal, Vacuum adiabatic calorimetry	68.59 J/K/mol
70 K, Crystal, Vacuum adiabatic calorimetry	70.93 J/K/mol
70.04 K, Crystal, Vacuum adiabatic calorimetry	71 J/K/mol
71.83 K, Crystal, Vacuum adiabatic calorimetry	72.22 J/K/mol
76.82 K, Crystal, Vacuum adiabatic calorimetry	75.66 J/K/mol
77.08 K, Crystal, Vacuum adiabatic calorimetry	75.91 J/K/mol
80 K, Crystal, Vacuum adiabatic calorimetry	77.87 J/K/mol
81.77 K, Crystal, Vacuum adiabatic calorimetry	79.16 J/K/mol
84.85 K, Crystal, Vacuum adiabatic calorimetry	81.07 J/K/mol
86.7 K, Crystal, Vacuum adiabatic calorimetry	82.3 J/K/mol
90 K, Crystal, Vacuum adiabatic calorimetry	84.45 J/K/mol
92.7 K, Glass, Vacuum adiabatic calorimetry	86.97 J/K/mol
93.5 K, Crystal, Vacuum adiabatic calorimetry	86.69 J/K/mol
100 K, Crystal, Vacuum adiabatic calorimetry	90.82 J/K/mol
102.16 K, Glass, Vacuum adiabatic calorimetry	93.03 J/K/mol
102.86 K, Crystal, Vacuum adiabatic calorimetry	92.63 J/K/mol
111.98 K, Glass, Vacuum adiabatic calorimetry	99.33 J/K/mol
112.57 K, Crystal, Vacuum adiabatic calorimetry	98.86 J/K/mol
120 K, Crystal, Vacuum adiabatic calorimetry	103.63 J/K/mol
122.36 K, Crystal, Vacuum adiabatic calorimetry	105.15 J/K/mol
122.48 K, Glass, Vacuum adiabatic calorimetry	106.16 J/K/mol
132.22 K, Crystal, Vacuum adiabatic calorimetry	111.61 J/K/mol
133.24 K, Glass, Vacuum adiabatic calorimetry	113.28 J/K/mol
140 K, Crystal, Vacuum adiabatic calorimetry	116.81 J/K/mol
142.62 K, Crystal, Vacuum adiabatic calorimetry	118.58 J/K/mol
144.86 K, Glass, Vacuum adiabatic calorimetry	121.24 J/K/mol
153.97 K, Crystal, Vacuum adiabatic calorimetry	126.35 J/K/mol
158.22 K, Glass, Vacuum adiabatic calorimetry	130.67 J/K/mol
160 K, Crystal, Vacuum adiabatic calorimetry	130.74 J/K/mol
165.78 K, Crystal, Vacuum adiabatic calorimetry	135.02 J/K/mol
172.31 K, Glass, Vacuum adiabatic calorimetry	140.99 J/K/mol
177.53 K, Crystal, Vacuum adiabatic calorimetry	143.52 J/K/mol
180 K, Crystal, Vacuum adiabatic calorimetry	145.34 J/K/mol
183.8 K, Crystal, Vacuum adiabatic calorimetry	148.26 J/K/mol
184.4 K, Glass, Vacuum adiabatic calorimetry	150.13 J/K/mol
189.34 K, Crystal, Vacuum adiabatic calorimetry	152.49 J/K/mol
193.62 K, Glass, Vacuum adiabatic calorimetry	157.14 J/K/mol
195.08 K, Crystal, Vacuum adiabatic calorimetry	157.04 J/K/mol
198.88 K, Glass, Vacuum adiabatic calorimetry	161.79 J/K/mol
200 K, Crystal, Vacuum adiabatic calorimetry	160.73 J/K/mol
201.24 K, Crystal, Vacuum adiabatic calorimetry	161.76 J/K/mol
201.34 K, Glass, Vacuum adiabatic calorimetry	162.43 J/K/mol
206.16 K, Crystal, Vacuum adiabatic calorimetry	165.72 J/K/mol
212.82 K, Glass, Vacuum adiabatic calorimetry	180.93 J/K/mol
217.01 K, Crystal, Vacuum adiabatic calorimetry	174.74 J/K/mol
220 K, Crystal, Vacuum adiabatic calorimetry	177.08 J/K/mol
224.64 K, Liquid, Vacuum adiabatic calorimetry	274.63 J/K/mol
227.57 K, Crystal, Vacuum adiabatic calorimetry	183.38 J/K/mol
230.27 K, Liquid, Vacuum adiabatic calorimetry	276.92 J/K/mol
233.28 K, Liquid, Vacuum adiabatic calorimetry	278.09 J/K/mol
238.35 K, Crystal, Vacuum adiabatic calorimetry	192.45 J/K/mol
239.4 K, Liquid, Vacuum adiabatic calorimetry	280.79 J/K/mol
240 K, Crystal, Vacuum adiabatic calorimetry	193.69 J/K/mol
242.59 K, Liquid, Vacuum adiabatic calorimetry	282.18 J/K/mol
249.84 K, Crystal, Vacuum adiabatic calorimetry	202.22 J/K/mol
252.38 K, Liquid, Vacuum adiabatic calorimetry	286.68 J/K/mol
252.84 K, Liquid, Vacuum adiabatic calorimetry	287 J/K/mol
260 K, Crystal, Vacuum adiabatic calorimetry	210.67 J/K/mol
261.66 K, Crystal, Vacuum adiabatic calorimetry	212.63 J/K/mol
273.41 K, Crystal, Vacuum adiabatic calorimetry	223.08 J/K/mol
280 K, Crystal, Vacuum adiabatic calorimetry	228.03 J/K/mol
284.54 K, Liquid, Vacuum adiabatic calorimetry	303.16 J/K/mol
285.16 K, Crystal, Vacuum adiabatic calorimetry	237.05 J/K/mol
293.3 K, Liquid, Vacuum adiabatic calorimetry	308.04 J/K/mol
297.47 K, Crystal, Vacuum adiabatic calorimetry	243.76 J/K/mol
297.47 K, Liquid, Vacuum adiabatic calorimetry	310.36 J/K/mol
298.15 K, Liquid, Vacuum adiabatic calorimetry	310.74 J/K/mol
300 K, Liquid, Vacuum adiabatic calorimetry	311.8 J/K/mol
304.21 K, Liquid, Vacuum adiabatic calorimetry	314.19 J/K/mol
305.11 K, Liquid, Vacuum adiabatic calorimetry	314.67 J/K/mol
305.83 K, Liquid, Vacuum adiabatic calorimetry	315.13 J/K/mol
306.22 K, Liquid, Vacuum adiabatic calorimetry	315.36 J/K/mol
314.2 K, Liquid, Vacuum adiabatic calorimetry	320 J/K/mol
320 K, Liquid, Vacuum adiabatic calorimetry	323.37 J/K/mol
321.38 K, Liquid, Vacuum adiabatic calorimetry	324.18 J/K/mol
337.19 K, Liquid, Vacuum adiabatic calorimetry	333.49 J/K/mol
340 K, Liquid, Vacuum adiabatic calorimetry	335.17 J/K/mol
352.74 K, Liquid, Vacuum adiabatic calorimetry	342.77 J/K/mol
360 K, Liquid, Vacuum adiabatic calorimetry	347.09 J/K/mol
368.54 K, Liquid, Vacuum adiabatic calorimetry	352.16 J/K/mol
380 K, Liquid, Vacuum adiabatic calorimetry	359 J/K/mol
384.76 K, Liquid, Vacuum adiabatic calorimetry	361.84 J/K/mol
400 K, Liquid, Vacuum adiabatic calorimetry	370.85 J/K/mol
400.59 K, Liquid, Vacuum adiabatic calorimetry	371.18 J/K/mol
410 K, Liquid, Small sample (50 mg) DSC	374.57 J/K/mol and 371.91 J/K/mol and 371.07 J/K/mol
415.69 K, Liquid, Vacuum adiabatic calorimetry	380.05 J/K/mol
420 K, Liquid, Vacuum adiabatic calorimetry	382.51 J/K/mol
428.68 K, Liquid, Vacuum adiabatic calorimetry	387.41 J/K/mol
430 K, Liquid, Small sample (50 mg) DSC	384.13 J/K/mol and 385.46 J/K/mol and 382.55 J/K/mol
439.15 K, Liquid, Vacuum adiabatic calorimetry	393.4 J/K/mol
440 K, Liquid, Vacuum adiabatic calorimetry	393.64 J/K/mol
450 K, Liquid, Small sample (50 mg) DSC	395.1 J/K/mol and 393.86 J/K/mol and 402.09 J/K/mol
460 K, Liquid, Vacuum adiabatic calorimetry	401.95 J/K/mol
470 K, Liquid, Small sample (50 mg) DSC	403.25 J/K/mol and 404.83 J/K/mol and 407.16 J/K/mol
480 K, Liquid, Vacuum adiabatic calorimetry	412.21 J/K/mol
490 K, Liquid, Small sample (50 mg) DSC	411.48 J/K/mol and 416.14 J/K/mol and 419.05 J/K/mol
500 K, Liquid, Vacuum adiabatic calorimetry	422.42 J/K/mol
510 K, Liquid, Small sample (50 mg) DSC	426.2 J/K/mol and 428.36 J/K/mol and 429.11 J/K/mol
520 K, Liquid, Vacuum adiabatic calorimetry	432.63 J/K/mol
530 K, Liquid, Small sample (50 mg) DSC	435.1 J/K/mol and 439.09 J/K/mol and 438.67 J/K/mol
540 K, Liquid, Vacuum adiabatic calorimetry	442.84 J/K/mol
550 K, Liquid, Small sample (50 mg) DSC	444.66 J/K/mol and 449.81 J/K/mol and 447.07 J/K/mol
560 K, Liquid, Vacuum adiabatic calorimetry	453.01 J/K/mol
570 K, Liquid, Small sample (50 mg) DSC	452.81 J/K/mol and 460.62 J/K/mol and 460.45 J/K/mol
580 K, Liquid, Vacuum adiabatic calorimetry	463.22 J/K/mol
590 K, Liquid, Small sample (50 mg) DSC	466.28 J/K/mol and 469.1 J/K/mol and 471.1 J/K/mol
600 K, Liquid, Vacuum adiabatic calorimetry	473.43 J/K/mol
610 K, Liquid, Small sample (50 mg) DSC	480.83 J/K/mol and 476.5 J/K/mol and 479.25 J/K/mol
620 K, Liquid, Vacuum adiabatic calorimetry	483.64 J/K/mol
640 K, Liquid, Vacuum adiabatic calorimetry	493.83 J/K/mol
650 K, Liquid, Vacuum adiabatic calorimetry	498.91 J/K/mol

Conditions	Molar enthalpy of transition or fusion [kcal/mol]
[2]	3.716
